Patent publication US20220033407A1, “N-(pyridin-2-ylsulfonyl)cyclopropanecarboxamide Derivatives and their Use in the Treatment of Disease” (NOVARTIS AG, priority 2018, published 2022)

Key:
[1] = target: T1, delF508-CFTR (Homo sapiens, UniProt P13569, DEL508-508); test: delF508-CFTR functional activity in primary human bronchial epithelial cells (HBECs), Multi-Transepithelial Clamp Circuit (MTECC-24) assay, equivalent short circuit current; type: cell-based; conditions: primary CF HBECs; for MTECC24 CFHBEC-Amax %: relative to reference combination 2 μM 3-(6-(1-(2,2-difluorobenzo[d][1,3]dioxol-5-yl)cyclopropane-1-carboxamido)-3-methylpyridin-2-yl)benzoic acid (24 h) + 0.5 μM N-(2,4-di-tert-butyl-5-hydroxyphenyl)-4-oxo-1,4-dihydroquinoline-3-carboxamide; for EC50: test compound added 24 h before assay, potentiator (S)-3-amino-6-methoxy-N-(3,3,3-trifluoro-2-hydroxy-2-methylpropyl)-5-(trifluoromethyl)picolinamide present at assay, mean of at least two replicates, read-out: MTECC24 CFHBEC-EC50
T1 construct: functional activity of the CFTR channel (Chloride ion transport) in patient derived primary human bronchial epithelial cells; host or cells: patient-derived primary human bronchial epithelial cells (HBECs), delF508-CFTR
Summary of the method: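 Patient-derived delF508 HBECs, grown at air-liquid interface about two weeks, were corrected with compound basolaterally for 24 h. Compound was then re-added apically and basolaterally in HEPES pH7.4 assay medium, with sequential modulators including forskolin and the picolinamide potentiator. Ieq was recorded, normalised to 0.1% DMSO wells, and EC50 fitted from 10-point curves.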

[2] = target: T2, delF508-CFTR-HRP (Homo sapiens, UniProt P13569, DEL508-508); test: Measurement of delF508-CFTR-HRP surface expression in CFBE41o- cells (HRP luminescence); type: cell-based; conditions: for Emax: CFBE41o-, read-out: DelF508-CFTR-HRP Amax %; for EC50: mean of at least two replicates;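 for DelF508-CFTR-HRP Amax %: percent efficacy relative to a reference CFTR corrector compound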
T2 construct: expressed in transfected cells
Summary of the method: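 Stably transfected CFBE41o- cells carrying HRP in the fourth extracellular loop of delF508-CFTR, induced with 500 ng/mL doxycycline for 48 h, then compound-treated 24 h at 37° C (10-point, 3-fold, top 10 μM). Surface HRP detected by luminescent substrate; EC50 from logistic fit, triplicates, normalized to lowest-concentration median.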

T2 sequence (P13569 with tags, fused parts or gaps DEL508-508): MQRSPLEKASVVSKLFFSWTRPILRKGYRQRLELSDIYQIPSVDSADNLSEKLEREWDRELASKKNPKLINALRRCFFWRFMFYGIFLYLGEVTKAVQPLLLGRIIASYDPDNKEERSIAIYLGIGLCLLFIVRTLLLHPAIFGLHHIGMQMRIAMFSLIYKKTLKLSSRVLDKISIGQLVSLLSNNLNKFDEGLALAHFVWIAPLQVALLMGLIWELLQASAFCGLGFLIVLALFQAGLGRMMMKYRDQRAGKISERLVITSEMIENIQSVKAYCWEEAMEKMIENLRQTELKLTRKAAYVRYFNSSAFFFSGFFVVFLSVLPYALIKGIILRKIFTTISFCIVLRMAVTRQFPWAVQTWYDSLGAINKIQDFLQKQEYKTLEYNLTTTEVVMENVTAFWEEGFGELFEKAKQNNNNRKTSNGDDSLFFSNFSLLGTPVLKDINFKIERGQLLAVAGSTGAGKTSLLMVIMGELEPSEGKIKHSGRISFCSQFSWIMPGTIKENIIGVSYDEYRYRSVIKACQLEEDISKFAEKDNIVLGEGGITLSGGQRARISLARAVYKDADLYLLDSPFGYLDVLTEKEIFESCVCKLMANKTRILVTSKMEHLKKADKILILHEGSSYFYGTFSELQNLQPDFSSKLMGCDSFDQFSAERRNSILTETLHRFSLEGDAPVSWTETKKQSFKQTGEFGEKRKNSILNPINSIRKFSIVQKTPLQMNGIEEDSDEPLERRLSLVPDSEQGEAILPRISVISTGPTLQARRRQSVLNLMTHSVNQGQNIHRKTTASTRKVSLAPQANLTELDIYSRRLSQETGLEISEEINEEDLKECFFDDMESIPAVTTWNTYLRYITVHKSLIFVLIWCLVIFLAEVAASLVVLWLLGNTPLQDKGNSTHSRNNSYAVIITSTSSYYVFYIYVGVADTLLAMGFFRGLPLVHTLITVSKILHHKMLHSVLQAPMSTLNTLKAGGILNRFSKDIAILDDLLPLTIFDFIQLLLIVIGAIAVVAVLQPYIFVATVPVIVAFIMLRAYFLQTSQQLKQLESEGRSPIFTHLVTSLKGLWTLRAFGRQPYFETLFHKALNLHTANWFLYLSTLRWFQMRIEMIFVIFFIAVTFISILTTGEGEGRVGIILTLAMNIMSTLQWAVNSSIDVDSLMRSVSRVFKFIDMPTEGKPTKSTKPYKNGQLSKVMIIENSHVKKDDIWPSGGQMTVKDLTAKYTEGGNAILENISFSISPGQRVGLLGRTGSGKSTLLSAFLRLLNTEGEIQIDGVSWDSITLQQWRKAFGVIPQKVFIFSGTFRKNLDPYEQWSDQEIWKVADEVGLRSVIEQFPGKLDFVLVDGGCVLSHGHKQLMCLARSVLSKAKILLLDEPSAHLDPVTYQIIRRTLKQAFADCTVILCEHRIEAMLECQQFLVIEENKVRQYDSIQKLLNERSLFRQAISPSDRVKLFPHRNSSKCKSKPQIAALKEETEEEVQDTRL
T1 sequence (P13569 with tags, fused parts or gaps DEL508-508): as above

SMILES: Cc1ccc(-c2cccc(C(F)(F)F)c2)c(OC2(C(=O)NS(=O)(=O)c3cccc(N4CC[C@@H](O)C4)n3)CC2)c1 [Example 5-11, (R)—N-((6-(3-Hydroxypyrrolidin-1-yl)pyridin-2-yl)sulfonyl)-1-((4-methyl-3′-(trifluoromethyl)-[1,1′-biphenyl]-2-yl)oxy)cyclopropane-1-carboxamide]
- MTECC24 CFHBEC-Amax % [1]: 68%
- EC50 [1]: 20 nM
- Emax [2]: 371%
- EC50 [2]: 2180 nM

SMILES: Cc1ccc(-c2ccccc2C(F)(F)F)c(OC2(C(=O)NS(=O)(=O)c3cccc(N4CC[C@H](O)C4)n3)CC2)c1 [Example 5-14, (S)—N-((6-(3-Hydroxypyrrolidin-1-yl)pyridin-2-yl)sulfonyl)-1-((4-methyl-2′-(trifluoromethyl)-[1,1′-biphenyl]-2-yl)oxy)cyclopropane-1-carboxamide]
- MTECC24 CFHBEC-Amax % [1]: 43%
- EC50 [1]: 50 nM
- Emax [2]: 196%
- EC50 [2]: 2150 nM

SMILES: Cc1ccc(-c2cccc(C(F)(F)F)c2)c(OC2(C(=O)NS(=O)(=O)c3cccc(N4CCC(N)(C(F)(F)F)CC4)n3)CC2)c1 [Example 5-16, N-((6-(4-Amino-4-(trifluoromethyl)piperidin-1-yl)pyridin-2-yl)sulfonyl)-1-((4-methyl-3′-(trifluoromethyl)-[1,1′-biphenyl]-2-yl)oxy)cyclopropane-1-carboxamide]
- MTECC24 CFHBEC-Amax % [1]: 79%
- EC50 [1]: 7 nM
- Emax [2]: 294%
- EC50 [2]: 420 nM

SMILES: Cc1ccc(OCc2ccccc2)c(OC2(C(=O)NS(=O)(=O)c3cccc(N4CCO[C@@H](C)C4)n3)CC2)c1 [Example 6-1, (S)-1-(2-(Benzyloxy)-5-methylphenoxy)-N-((6-(2-methylmorpholino)pyridin-2-yl)sulfonyl)cyclopropanecarboxamide]
- MTECC24 CFHBEC-Amax % [1]: 67%
- EC50 [1]: 153 nM
- Emax [2]: 230%
- EC50 [2]: 3870 nM

SMILES: Cc1ccc(OC2CCCCCC2)c(OC2(C(=O)NS(=O)(=O)c3cccc(N4CC[C@H](O)C4)n3)CC2)c1 [Example 6-6, (S)-1-(2-(cycloheptyloxy)-5-methylphenoxy)-N-((6-(3-hydroxypyrrolidin-1-yl)pyridin-2-yl)sulfonyl)cyclopropanecarboxamide]
- MTECC24 CFHBEC-Amax % [1]: 110.6%
- EC50 [1]: 668 nM
- Emax [2]: 462%
- EC50 [2]: 2070 nM

SMILES: CC(C)(C)C1CCC(Oc2ccc(Cl)cc2OC2(C(=O)NS(=O)(=O)c3cccc(N4CC[C@H](O)C4)n3)CC2)CC1 (stereo partly drawn) [Example 6-7, (S)-1-(2-((4-(tert-butyl)cyclohexyl)oxy)-5-chlorophenoxy)-N-((6-(3-hydroxypyrrolidin-1-yl)pyridin-2-yl)sulfonyl)cyclopropanecarboxamide]
- MTECC24 CFHBEC-Amax % [1]: 203.9%
- EC50 [1]: 116 nM
- Emax [2]: 446%
- EC50 [2]: 760 nM

SMILES: Cc1ccc(OC2CCC3CCCCC3C2)c(OC2(C(=O)NS(=O)(=O)c3cccc(N4CC[C@H](O)C4)n3)CC2)c1 (stereo partly drawn) [Example 6-9, 1-(2-((decahydronaphthalen-2-yl)oxy)-5-methylphenoxy)-N-((6-((S)-3-hydroxypyrrolidin-1-yl)pyridin-2-yl)sulfonyl)cyclopropanecarboxamide]
- MTECC24 CFHBEC-Amax % [1]: 107.4%
- EC50 [1]: 289 nM
- Emax [2]: 382%
- EC50 [2]: 1280 nM

SMILES: Cc1ccc(OC2Cc3ccccc3C2)c(OC2(C(=O)NS(=O)(=O)c3cccc(N4CC[C@H](O)C4)n3)CC2)c1 [Example 6-10, (S)-1-(2-((2,3-dihydro-1H-inden-2-yl)oxy)-5-methylphenoxy)-N-((6-(3-hydroxypyrrolidin-1-yl)pyridin-2-yl)sulfonyl)cyclopropanecarboxamide]
- MTECC24 CFHBEC-Amax % [1]: 79.2%
- EC50 [1]: 1440 nM
- Emax [2]: 350%
- EC50 [2]: 2670 nM

SMILES: Cc1ccc(OCCC2CCCCC2)c(OC2(C(=O)NS(=O)(=O)c3cccc(N4CC[C@H](O)C4)n3)CC2)c1 [Example 6-11, (S)-1-(2-(2-cyclohexylethoxy)-5-methylphenoxy)-N-((6-(3-hydroxypyrrolidin-1-yl)pyridin-2-yl)sulfonyl)cyclopropanecarboxamide]
- MTECC24 CFHBEC-Amax % [1]: 113.6%
- EC50 [1]: 261 nM
- Emax [2]: 311%
- EC50 [2]: 1180 nM

SMILES: CC(C)CCOc1ccc(Cl)cc1OC1(C(=O)NS(=O)(=O)c2cccc(N3CC[C@H](O)C3)n2)CC1 [Example 6-12, (S)-1-(5-chloro-2-(isopentyloxy)phenoxy)-N-((6-(3-hydroxypyrrolidin-1-yl)pyridin-2-yl)sulfonyl)cyclopropanecarboxamide]
- MTECC24 CFHBEC-Amax % [1]: 111.4%
- EC50 [1]: 852 nM
- Emax [2]: 297%
- EC50 [2]: 2710 nM

SMILES: O=C(NS(=O)(=O)c1cccc(N2CCC(O)(C(F)(F)F)CC2)n1)C1(Oc2cc(Cl)ccc2C2CC3(CCC3)C2)CC1 [Example 7-1, 1-(5-Chloro-2-(spiro[3.3]heptan-2-yl)phenoxy)-N-((6-(4-hydroxy-4-(trifluoromethyl)piperidin-1-yl)pyridin-2-yl)sulfonyl)cyclopropanecarboxamide]
- MTECC24 CFHBEC-Amax % [1]: 203.8%
- EC50 [1]: 132 nM
- Emax [2]: 445%
- EC50 [2]: 490 nM

SMILES: O=C(NS(=O)(=O)c1cccc(N2CC[C@H](O)C2)n1)C1(Oc2cc(Cl)ccc2C2CC3(CCC3)C2)CC1 [Example 7-3, (S)-1-(5-chloro-2-(spiro[3.3]heptan-2-yl)phenoxy)-N-((6-(3-hydroxypyrrolidin-1-yl)pyridin-2-yl)sulfonyl)cyclopropanecarboxamide]
- MTECC24 CFHBEC-Amax % [1]: 135.1%
- EC50 [1]: 132 nM
- Emax [2]: 794%
- EC50 [2]: 1020 nM

SMILES: O=C(NS(=O)(=O)c1cccc(N2CC(O)C2)n1)C1(Oc2cc(Cl)ccc2C2CC3(CCC3)C2)CC1 [Example 7-9, 1-(5-Chloro-2-(spiro[3.3]heptan-2-yl)phenoxy)-N-((6-(3-hydroxyazetidin-1-yl)pyridin-2-yl)sulfonyl)cyclopropane-1-carboxamide]
- MTECC24 CFHBEC-Amax % [1]: 120.3%
- EC50 [1]: 345 nM
- Emax [2]: 300%
- EC50 [2]: 2050 nM

SMILES: CC1(O)CN(c2cccc(S(=O)(=O)NC(=O)C3(Oc4cc(Cl)ccc4C4CC5(CCC5)C4)CC3)n2)C1 [Example 7-10, 1-(5-Chloro-2-(spiro[3.3]heptan-2-yl)phenoxy)-N-((6-(3-hydroxy-3-methylazetidin-1-yl)pyridin-2-yl)sulfonyl)cyclopropane-1-carboxamide]
- MTECC24 CFHBEC-Amax % [1]: 115.5%
- EC50 [1]: 356 nM
- Emax [2]: 367%
- EC50 [2]: 1670 nM

SMILES: O=C(NS(=O)(=O)c1cccc(N2CCC(O)CC2)n1)C1(Oc2cc(Cl)ccc2C2CC3(CCC3)C2)CC1 [Example 7-11, 1-(5-Chloro-2-(spiro[3.3]heptan-2-yl)phenoxy)-N-((6-(4-hydroxypiperidin-1-yl)pyridin-2-yl)sulfonyl)cyclopropane-1-carboxamide]
- MTECC24 CFHBEC-Amax % [1]: 154.0%
- EC50 [1]: 197 nM
- Emax [2]: 446%
- EC50 [2]: 1260 nM

SMILES: CC1(O)CCN(c2cccc(S(=O)(=O)NC(=O)C3(Oc4cc(Cl)ccc4C4CC5(CCC5)C4)CC3)n2)CC1 [Example 7-12, 1-(5-Chloro-2-(spiro[3.3]heptan-2-yl)phenoxy)-N-((6-(4-hydroxy-4-methylpiperidin-1-yl)pyridin-2-yl)sulfonyl)cyclopropane-1-carboxamide]
- MTECC24 CFHBEC-Amax % [1]: 152.6%
- EC50 [1]: 195 nM
- Emax [2]: 529%
- EC50 [2]: 1090 nM

SMILES: C[C@@H]1CN(c2cccc(S(=O)(=O)NC(=O)C3(Oc4cc(Cl)ccc4C4CC5(CCC5)C4)CC3)n2)CCO1 [Example 7-13, (R)-1-(5-Chloro-2-(spiro[3.3]heptan-2-yl)phenoxy)-N-((6-(2-methylmorpholino)pyridin-2-yl)sulfonyl)cyclopropane-1-carboxamide]
- MTECC24 CFHBEC-Amax % [1]: 81.1%
- EC50 [1]: 213 nM
- Emax [2]: 543%
- EC50 [2]: 1290 nM

SMILES: CO[C@H]1CCN(c2cccc(S(=O)(=O)NC(=O)C3(Oc4cc(Cl)ccc4C4CC5(CCC5)C4)CC3)n2)C1 [Example 7-14, (S)-1-(5-Chloro-2-(spiro[3.3]heptan-2-yl)phenoxy)-N-((6-(3-methoxypyrrolidin-1-yl)pyridin-2-yl)sulfonyl)cyclopropane-1-carboxamide]
- MTECC24 CFHBEC-Amax % [1]: 128.1%
- EC50 [1]: 317 nM
- Emax [2]: 496%
- EC50 [2]: 1100 nM

SMILES: CN(C)c1cccc(S(=O)(=O)NC(=O)C2(Oc3cc(Cl)ccc3C3CC4(CCC4)C3)CC2)n1 [Example 7-15, 1-(5-Chloro-2-(spiro[3.3]heptan-2-yl)phenoxy)-N-((6-(dimethylamino)pyridin-2-yl)sulfonyl)cyclopropane-1-carboxamide]
- MTECC24 CFHBEC-Amax % [1]: 120.7%
- EC50 [1]: 166 nM
- Emax [2]: 442%
- EC50 [2]: 860 nM

SMILES: NC1(C(F)(F)F)CCN(c2cccc(S(=O)(=O)NC(=O)C3(Oc4cc(Cl)ccc4C4CC5(CCC5)C4)CC3)n2)CC1 [Example 7-17, N-((6-(4-amino-4-(trifluoromethyl)piperidin-1-yl)pyridin-2-yl)sulfonyl)-1-(5-chloro-2-(spiro[3.3]heptan-2-yl)phenoxy)cyclopropane-1-carboxamide]
- MTECC24 CFHBEC-Amax % [1]: 128.4%
- EC50 [1]: 57 nM
- Emax [2]: 377%
- EC50 [2]: 420 nM
